The values below come from ChEMBL document CHEMBL1201862, “PubChem BioAssay data set” (2004).

Test systems include COLO 205; SK-MEL-5; SR; K562; NCI-H226; MDA-MB-435; MCF7; Malme-3M; SF-539; SK-OV-3; OVCAR-5; SF-268; A549; CAKI-1; T47D; 786-0; M14; HCC 2998; A498; MDA-N.
What all share (assay): DTP human tumour cell line panel, 48 h

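Compound exposure: 48 hours, 5 concentrations, 96-well plates. Here, GI50 denotes the concentration required for 50% inhibition of growth.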 Active and inactive are the calls of the source. Rule as the data show it: active = GI50 up to about 1.1 µM and inactive = higher. Some results are limits rather than exact numbers.

As usually defined, the GI50 is the concentration at which growth is held to half of that of the control. Take `S=C(Nc1cccc(Cl)c1)Nc1ccccn1`: the GI50 in the experiment on COLO 205, in the experiment with SK-MEL-5, in the experiment with SR, in the experiment with K562, with NCI-H226 and in the experiment on MDA-MB-435 was > 100 µM (inactive) each time. Also, the GI50 in the experiment with MCF7 was > 100 µM (inactive); in the experiment with Malme-3M, 27.6 µM (inactive); with SF-539 it was > 100 µM (inactive); with SK-OV-3, > 100 µM (inactive); in the experiment with OVCAR-5, > 100 µM (inactive); with SF-268, > 100 µM (inactive). Moreover, the GI50 in the experiment on A549, with CAKI-1, with T47D, with 786-0 and in the experiment on M14 was > 100 µM (inactive) each time.

Regarding `Cc1ccc2c(ccc(/C=C/c3ccc(O)c4ncccc34)[n+]2C)c1`, the GI50 in the experiment on COLO 205 was 5.38 µM (inactive); in the experiment on SK-MEL-5 it was 14.1 µM (inactive); in the experiment with SR, 2.74 µM (inactive); in the experiment with K562 it was 3.11 µM (inactive); with NCI-H226, 24.8 µM (inactive); in the experiment on MDA-MB-435 it was > 30.4 µM (inactive). Further, the GI50 in the experiment on HCC 2998 was 3.56 µM (inactive); in the experiment on MCF7, 7.36 µM (inactive); with Malme-3M, 11.1 µM (inactive); in the experiment on SF-539 it was 7.18 µM (inactive); in the experiment on SK-OV-3 it was 15.4 µM (inactive); in the experiment on OVCAR-5, 25.2 µM (inactive). For the same molecule, the GI50 is 2.94 µM (inactive) with SF-268; 15.1 µM (inactive) in the experiment on A549; 12.2 µM (inactive) in the experiment on A498; 5.55 µM (inactive) with CAKI-1; 5.57 µM (inactive) in the experiment on 786-0; > 24 µM (inactive) in the experiment with MDA-N. Further, the GI50 in the experiment on M14 is 13.6 µM (inactive).

In the case of `CCNC(=O)c1cc(/C=C/c2ccc([N+](=O)[O-])o2)nc2ccccc12`, the GI50 with COLO 205 is 3.8 µM (inactive); in the experiment with SK-MEL-5, 1.5 µM (inactive); in the experiment on SR it was 1.38 µM (inactive); with K562, 6.79 µM (inactive); in the experiment with NCI-H226 it was 5.15 µM (inactive); with MDA-MB-435 it was 2.19 µM (inactive). Besides, the GI50 is 5.26 µM (inactive) in the experiment with HCC 2998; 6.4 µM (inactive) with MCF7; 15.7 µM (inactive) with Malme-3M; 23.3 µM (inactive) in the experiment with SF-539; 33.6 µM (inactive) with SK-OV-3; > 100 µM (inactive) with OVCAR-5. Also, the GI50 with SF-268 was 23.7 µM (inactive); in the experiment with A549, 24.2 µM (inactive); in the experiment on A498 it was 15.5 µM (inactive); with CAKI-1, 7.96 µM (inactive); in the experiment with T47D, > 100 µM (inactive); with 786-0, 11.3 µM (inactive). In addition, in the experiment with M14, the GI50 was 2.34 µM (inactive).

As to `C=CCN1CCC(O)(c2cc(C(=O)OCC)[nH]c2-c2cc(C)no2)C1` (stereo unspecified), the GI50 in the experiment on COLO 205, with SK-MEL-5, in the experiment with K562, in the experiment on NCI-H226, with MDA-MB-435 and with Malme-3M was > 100 µM (inactive) each time. Also, the GI50 in the experiment on SF-539, with SK-OV-3, with OVCAR-5, in the experiment on SF-268, in the experiment with A549 and in the experiment with A498 was > 100 µM (inactive) in each case. Besides, the GI50 with CAKI-1, in the experiment with T47D, in the experiment with 786-0, with MDA-N and in the experiment with M14 was > 100 µM (inactive) throughout.

Take `CC(C)=CCC12Cc3ccc(O)cc3C(C(C)CN1)C2C` (stereo unspecified): the GI50 in the experiment on COLO 205 is 36.9 µM (inactive); with SK-MEL-5, > 10 µM (inactive); in the experiment on SR it was 39.2 µM (inactive); in the experiment on K562 it was 34.4 µM (inactive); in the experiment on NCI-H226, > 100 µM (inactive); in the experiment with MDA-MB-435 it was 44.9 µM (inactive). For the same molecule, the GI50 is 20.8 µM (inactive) in the experiment on HCC 2998; 81.3 µM (inactive) with MCF7; > 100 µM (inactive) in the experiment on Malme-3M; 72.1 µM (inactive) in the experiment on SF-539; > 100 µM (inactive) with SK-OV-3; 58.9 µM (inactive) in the experiment on OVCAR-5. Besides, the GI50 was > 100 µM (inactive) in the experiment with SF-268; > 100 µM (inactive) in the experiment with A549; 50.9 µM (inactive) with A498; > 100 µM (inactive) with T47D; > 100 µM (inactive) in the experiment with 786-0; 21 µM (inactive) with M14.

For `CC(=O)NC1C(OCc2ccccc2)OC(CO)C(O)C1OCC(=O)N[C@@H](C)C(=O)N[C@H](CCC(=O)NCCNc1ccc([N+](=O)[O-])c2[nH]c3ccccc3c(=O)c12)C(N)=O` (stereo partly specified), the GI50 in the experiment with COLO 205 was 15.9 µM (inactive); in the experiment on SK-MEL-5 it was 24.8 µM (inactive); in the experiment on SR it was 58.7 µM (inactive); in the experiment with K562 it was 58.9 µM (inactive); in the experiment with NCI-H226 it was 12.8 µM (inactive); in the experiment on MDA-MB-435, 22.4 µM (inactive). Also, the GI50 was 10.9 µM (inactive) with HCC 2998; 84.5 µM (inactive) in the experiment on Malme-3M; 2.21 µM (inactive) with SF-539; 81.5 µM (inactive) with SK-OV-3; 37.2 µM (inactive) in the experiment on OVCAR-5; 24 µM (inactive) in the experiment with A498. In addition, the GI50 with CAKI-1 is 29.9 µM (inactive); in the experiment on T47D, 57 µM (inactive); with 786-0, 18.7 µM (inactive); in the experiment with MDA-N, 27.9 µM (inactive); in the experiment on M14, 60.3 µM (inactive).

On to `Cc1cn(C2CC(OC(c3ccccc3)(c3ccccc3)c3ccccc3)C(COC(c3ccccc3)(c3ccccc3)c3ccccc3)O2)c(=O)[nH]c1=O` (stereo unspecified), for which the GI50 was > 100 µM (inactive) in the experiment on COLO 205; 43.3 µM (inactive) with SK-MEL-5; > 100 µM (inactive) in the experiment with SR; 38.6 µM (inactive) with K562; 26.1 µM (inactive) with NCI-H226; 26.2 µM (inactive) in the experiment with MDA-MB-435. Also, the GI50 is > 100 µM (inactive) in the experiment on HCC 2998; 19 µM (inactive) in the experiment with MCF7; 68.7 µM (inactive) in the experiment on Malme-3M; > 100 µM (inactive) in the experiment on SF-539; > 100 µM (inactive) in the experiment on SK-OV-3; 53.1 µM (inactive) in the experiment with OVCAR-5. Moreover, the GI50 in the experiment on SF-268 was 99.8 µM (inactive); in the experiment with A549, 34.3 µM (inactive); with A498 it was 25.4 µM (inactive); in the experiment with CAKI-1 it was > 100 µM (inactive); in the experiment with 786-0, > 100 µM (inactive); with MDA-N, 31.8 µM (inactive). Also, the GI50 in the experiment on M14 was > 100 µM (inactive).

As to `Cc1cccc2cc3c(ccc4ccccc43)c[n+]12`, the GI50 in the experiment with COLO 205 is 13.3 µM (inactive); in the experiment on SK-MEL-5 it was 5.65 µM (inactive); in the experiment with SR it was 6.43 µM (inactive); with K562 it was 30.1 µM (inactive); in the experiment with MDA-MB-435, 33.4 µM (inactive); in the experiment on HCC 2998 it was 16.3 µM (inactive). For the same molecule, the GI50 is 13.5 µM (inactive) in the experiment with MCF7; 1.77 µM (inactive) in the experiment on Malme-3M; 16.7 µM (inactive) in the experiment with SF-539; > 100 µM (inactive) with OVCAR-5; 2.83 µM (inactive) with SF-268; 5.86 µM (inactive) with A549. For the same molecule, the GI50 with 786-0 was 18 µM (inactive); in the experiment with MDA-N it was 37.9 µM (inactive).

Turning to `CN(C)/C=C/C=C(/C=N/S(=O)(=O)C(F)(F)F)C1C=CN(S(=O)(=O)C(F)(F)F)C=C1`, the GI50 in the experiment on COLO 205 is 17.7 µM (inactive); with SK-MEL-5, 23.5 µM (inactive); in the experiment with SR it was 30.1 µM (inactive); with K562 it was 37.8 µM (inactive); in the experiment on NCI-H226, 26 µM (inactive); in the experiment on MDA-MB-435, 25.8 µM (inactive). In addition, the GI50 was 28.1 µM (inactive) with HCC 2998; 32 µM (inactive) in the experiment on Malme-3M; 28.4 µM (inactive) with SK-OV-3; 30.2 µM (inactive) with OVCAR-5; 48.5 µM (inactive) with SF-268; 32.4 µM (inactive) with A549. Also, the GI50 in the experiment with A498 is 41 µM (inactive); with CAKI-1, 25.6 µM (inactive); with T47D, 23.4 µM (inactive); in the experiment with 786-0, 45.8 µM (inactive); in the experiment with MDA-N it was 36.7 µM (inactive); in the experiment with M14, 36.1 µM (inactive).

Turning to `CC1[C@@]2(CCC(C)(C)O2)O[C@@H]2C=C3C4CCC5Cc6nc7c(nc6C[C@@]5(C)C4C[C@H](O)[C@@]3(C)[C@]12O)CC1CCC2C3=C[C@H]4O[C@@]5(O[C@@](C)(CO)C[C@@H]5O)C(C)[C@@]4(O)[C@]3(C)[C@@H](O)CC2[C@]1(C)C7` (stereo partly specified), the GI50 was 0.163 µM (active) in the experiment on COLO 205; 0.0951 µM (active) in the experiment with SK-MEL-5; 0.0264 µM (active) in the experiment on SR; 0.055 µM (active) in the experiment with K562; 0.0428 µM (active) in the experiment on NCI-H226; 0.624 µM (active) in the experiment on HCC 2998. The GI50 is 0.00959 µM (active) in the experiment with MCF7; 0.175 µM (active) with Malme-3M; 0.00847 µM (active) with SF-539; 0.0863 µM (active) in the experiment on SK-OV-3; 0.142 µM (active) with OVCAR-5; 0.05 µM (active) with SF-268. In addition, the GI50 in the experiment with A549 is 0.0953 µM (active); with A498 it was 0.0313 µM (active); in the experiment with CAKI-1 it was 0.111 µM (active); in the experiment on 786-0, 0.0168 µM (active); in the experiment with M14 it was 0.04 µM (active).

For the molecule `CC(C)C1=Cc2ccc3c(c2C(=O)C1=O)CCCC3(C)C` [MILTIRONE], the GI50 in the experiment on COLO 205 is 4.19 µM (inactive); in the experiment with SK-MEL-5, 12.3 µM (inactive); in the experiment with SR, 2.36 µM (inactive); with K562, 2.67 µM (inactive); in the experiment with NCI-H226, 20.5 µM (inactive); with HCC 2998, 18.4 µM (inactive). The GI50 was 4.74 µM (inactive) with Malme-3M; 5.33 µM (inactive) in the experiment on SF-539; 18.1 µM (inactive) with SK-OV-3; 19.4 µM (inactive) with OVCAR-5; 6.9 µM (inactive) in the experiment on SF-268; 18.3 µM (inactive) with A549. Further, the GI50 was 17.4 µM (inactive) in the experiment with A498, 2.47 µM (inactive) with CAKI-1, 5.65 µM (inactive) with 786-0 and 5.46 µM (inactive) in the experiment on M14.
